Results taken from PMC13278354, “The competitive interplay of 12‐oxophytodienoic acid (OPDA), protein thiols, and glutathione” (The Febs Journal, 2026).

Assays:
TRX-f1 [1] = biological target: T1, TRX-f1 (Arabidopsis thaliana, UniProt Q9XFH8); assay: intrinsic tryptophan fluorescence quenching; assay type: binding; details: covalent; 15 uM reduced protein, 150 uM OPDA, 3 h, RT, 50 mM KPi pH 7.2
T1 construct: gene At3g02730; recombinant His-tagged, without transit peptide, E. coli NiCo21(DE3)
T1 sequence (Q9XFH8 58-178): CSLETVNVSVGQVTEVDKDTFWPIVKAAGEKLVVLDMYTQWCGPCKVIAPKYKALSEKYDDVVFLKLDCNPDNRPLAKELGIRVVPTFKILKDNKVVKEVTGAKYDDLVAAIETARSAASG

TRX-m4 [2] = biological target: T2, TRX-m4 (Arabidopsis thaliana, UniProt Q9SEU6); assay: intrinsic tryptophan fluorescence quenching; assay type: binding; details: covalent; 15 uM reduced protein, 150 uM OPDA, 3 h, RT, 50 mM KPi pH 7.2
T2 construct: gene At3g15360; recombinant His-tagged, without transit peptide, E. coli NiCo21(DE3)
T2 sequence (Q9SEU6 83-193): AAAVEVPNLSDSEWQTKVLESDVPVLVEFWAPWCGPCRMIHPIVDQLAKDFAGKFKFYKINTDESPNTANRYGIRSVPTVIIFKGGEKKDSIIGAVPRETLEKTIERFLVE

TRX-f1 [3] = biological target: T1, TRX-f1; assay: insulin reduction assay (turbidity, A650); assay type: biochemical; details: covalent; 20 uM TRX pre-incubated with 80 uM OPDA, RT; assay pH 7.2, 1 mM DTT
TRX-m4 [4] = biological target: T2, TRX-m4; assay: insulin reduction assay (turbidity, A650); assay type: biochemical; details: covalent; 20 uM TRX pre-incubated with 80 uM OPDA, RT; assay pH 7.2, 1 mM DTT
TRX-h3 = biological target: T3, TRX-h3 (Arabidopsis thaliana, UniProt Q42403); assay: insulin reduction assay (turbidity, A650); assay type: biochemical; details: covalent; 20 uM TRX pre-incubated with 80 uM OPDA, RT; assay pH 7.2, 1 mM DTT
T3 construct: gene TRX3; recombinant His-tagged, E. coli NiCo21(DE3); cytosolic, no transit peptide
T3 sequence (Q42403 1-118): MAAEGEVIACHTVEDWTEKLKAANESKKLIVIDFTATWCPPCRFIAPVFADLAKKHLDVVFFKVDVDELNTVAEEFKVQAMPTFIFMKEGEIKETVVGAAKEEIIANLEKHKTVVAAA

change of maximal fluorescence intensity (TRX-f1 [1]): –14.5 relative units
change of maximal fluorescence intensity (TRX-m4 [2]): –16.3 relative units
residual activity (TRX-f1 [3]): 67%
residual activity (TRX-m4 [4]): 71%
residual activity (TRX-h3): 47%
SMILES: CC/C=C\C[C@@H]1C(=O)C=C[C@@H]1CCCCCCCC(=O)O [OPDA]
